In assay [1] the test system is AIEC LF82 bacteria in colonic loops of CEABAC10 mice expressing human CEACAM6. The experiment in a line: Adhesion assay in colonic loops of CEABAC10 mice. It is filed as in vivo. The settings on record: dose of 0.1 μmol, 4 h incubation. Here is the method:
E. coli strain LF82 was isolated from a chronic ileal lesion of a patient with Crohn's disease (CD). Bacteria were grown routinely in Luria-Bertani (LB) broth overnight at 37° C.
The transgenic mouse model CEABAC10 expressing the human CEACAM6 protein is available in the UMR Inserm/Université d'Auvergne 1071 led by Professor Arlette Darfeuille-Michaud at Clermont-Ferrand. This model is particularly suitable to reproduce the abnormal colonization by AIEC bacteria through the interaction with CEACAM6 molecules that were observed abnormally expressed in the ileal mucosa of Crohn's disease patients.
Three colonic loops were realized in anesthetized CEABAC10 mice. A volume of 100 μl of a bacterial suspension containing 6×10^6 bacteria/mL with or without inhibitory compound was injected into the loops (here, compound 2, example 1) or heptyl-mannose at a concentration of 100 μM). After an incubation period of 4 h, mice were euthanized and each loop was longitudinally opened, extensively washed and homogenized to numerate adherent LF82 bacteria. Bacterial adhesion was expressed as percentages of residual adhesion (100% corresponds to the adhesion in absence of any compound).

The subject of assay [2] is AIEC LF82 bacteria adhesion to T84 intestinal epithelial cells. Briefly: Adhesion assay on T84 cells, pre-, co- and post-incubation protocols (Example 21.2). The assay is classed as cell-based, Escherichia coli. Here is the method: (§1) E. coli strain LF82 was isolated from a chronic ileal lesion of a patient with Crohn's disease (CD). Bacteria were grown routinely in Luria-Bertani (LB) broth overnight at 37° C. Intestinal epithelial cells T84 derived from colonic adenocarcinoma were maintained in an atmosphere containing 5% CO2 at 37° C. in DMEM/F12 (50/50) medium supplemented with 10% (v/v) heat-inactivated fetal calf serum (FCS), 1% L-glutamine, 100 000 U·l^−1 penicillin, 100 mg·l^−1 streptomycin, 25 μg·l^−1 amphotericin B.
T84 were seeded in 48-well plates at a concentration of 1.5×10^5 cells per well and grown for 48 h. AIEC LF82 bacteria were incubated 1 h with each mannoside prior the cell infection (pre-incubation protocol) or they were added simultaneously onto the cells (co-incubation protocol) in complete medium without antibiotics, containing heat inactivated fetal calf serum (FCS). Heptyl-mannose or compound 2 (example 1) were tested at a dose of 100; 10; 1 or 0.1 μM. D-D-mannose was tested at a dose of 10 000; 1 000; 100 or 10 μM and compound 1 (example 2bis) was tested at a concentration of 500; 100; 10 or 1 μM. Cells were infected with AIEC LF82 bacteria at a multiplicity of infection (MOI) of 10 bacteria per cell for 3 h at 37° C. For the post-incubation protocol, mannosides were incubated with cells for 3 h after bacterial infection. A washing step was realized before this post-incubation to eliminate non-adherent bacteria. Monolayers were washed in phosphate-buffered saline (PBS; pH 7.2) and cells were then lysed with 1% Triton X-100 in deionized water. Samples were diluted and plated onto Luria Bertani agar plates to determine the number of colony-forming units (CFU) recovered from the lysed monolayers. Results were expressed as percentages of residual adhesion, considering adhesion level of AIEC LF82 without mannoside treatment as 100%.

Assay [3] has as its system AIEC LF82 strain adhesion to T84 intestinal epithelial cells. Briefly: Adhesion assay on T84 cells, cells incubated 1 h with mannoside prior infection (Example 21.1). It is filed as cell-based, Escherichia coli. Here is the method: as §1
T84 cells were seeded in 48-well tissue culture plates with 1.5×10^5 cells per well and grown for 48 h. Cells were incubated 1 h prior infection with each mannoside at a final concentration of 100; 10; 1 or 0.1 μM in complete medium without antibiotics, containing heat inactivated fetal calf serum (FCS) and were next infected with AIEC LF82 strain at a multiplicity of infection (MOI) of 10 bacteria per cell. After a 3 h incubation period at 37° C., the monolayers were washed in phosphate-buffered saline (PBS; pH 7.2). The epithelial cells were then lysed with 1% Triton X-100 in deionized water. Samples were diluted and plated onto Luria Bertani agar plates to determine the number of cfu recovered from the lysed monolayers.
Results were expressed in percentage of residual adhesion, considering adhesion level of AIEC LF82 without mannoside treatment as 100%.

The test system of assay [4] is type-1 piliated clinical E. coli isolate UTI89. The experiment in a line: Haemagglutination inhibition assay (HIA), guinea pig erythrocytes. It is filed as cell-based, Escherichia coli. The note with it: read-out: Minimal inhibitory concentration (MIC) on haemagglutination. The method, then:
Haemagglutination is observed as the red blood cells being held in suspension through the formation of a space-filling cross-linked network with the fimbriated bacteria.
The UIT89 clinical isolate was grown statically 37° C. for 48 hours in LB medium and analysed for haemagglutination of guinea pig red blood cells. Both bacteria and red blood cells (RBCs) were washed 3 times in ice-cold PBS (17 mM K/NaH2PO4, 150 mM NaCl). PBS was used for all dilutions. 96-well round-bottom microtiter plates were used for the dilutions. The titer for agglutination was determined in a 2-fold dilution series in PBS of the bacteria in a volume of 25 μL. Well 1 is a negative control without bacteria but 25 μL PBS. 25 μL PBS and 50 μL 5% RBCs were added to a final 100 μL volume. Upon 1 hour at 4° C., the titer was determined as the lowest concentration of bacteria that led to haemagglutination.
A bacterial concentration of twice the determined haemagglutination titer was kept constant in the haemagglutination inhibition assays. First, a 2-fold dilution series of the inhibitory compounds was performed in 25 μL PBS. Instead, in well 1 only 25 μL PBS was added as a negative control. 25 μL of the bacterial solution and 50 μl of 5% red blood cells were added to reach a final volume of 100 μL.

Another assay relates to bladder cell line 5637. Briefly: Anti-adhesives for bacterial bladder cell binding. It is filed as cell-based. The settings on record: ten-fold dilution series. The method, then: The anti-adhesive capacities of the HM-derivatized cyclodextrins 1-4 were tested in vitro on the bladder cell line 5637, in a procedure analogous as previously described (Wellens, A. et al., PLoS ONE 3: e2040 (2008)). The CD conjugates 1-4 were diluted in a ten-fold series. The minimum inhibitory concentrations (MIC) indicate the concentrations of sugars at which we see some inhibition of binding of FimH to the bladder cells, they do however not indicate complete inhibition. MIC values for the CD-conjugates 1-4 followed a similar trend as the inhibitory concentrations recorded in HIA.
The anti-adhesive capacities of the n-heptyl α-D-mannoside-derivatized cyclodextrins 1-4 were tested in vitro on the bladder cell line 5637, in a procedure analogous to as described in (Wellens, A. et al., PLoS ONE 3: e2040 (2008)). The ligands have been diluted 10-fold and this is also the resolution limit of these tests.

The subject of assay [5] is E. coli strain UTI89 in the bladder of C3H/HeN mice. Briefly: In vivo inhibition in the murine cystitis model (instillation with UTI89). The method, then: In vivo inhibition was evaluated by instilling 1-4 together with the UTI89 strain via a catheter in the bladder of C3H/HeN mice. […] A group of ten animals was used for each concentration of antagonists. […] The animals were sacrificed at a 6 h post infection time.
A murine model of urinary tract infection was used to test the ability of the compounds to inhibit the colonization of UTI89 in the bladder [Hung C. S.; Dodson, K. W., Hultgren S. J. Nat. Protoc. 2009, 4, 1230-1243 and Wellens A.; Garofalo C.; Nguyen H.; Van Gerven N.; Slättegård R.; Hernalsteens, J.-P.; Wyns, L.; Oscarson, S.; De Greve H.; Hultgren S. J.; Bouckaert, J. PLoS ONE 2008, 3, e2040]. The solution with high concentration of compounds was added to the resuspension of UTI89 before given to the mice. The eight-week old Female C3H/HeN mice (Harlan, Horst, The Netherlands) were anesthetized and infected via transurethral catheterization of 10^7 CFU UTI89 in solution in PBS, or in PBS with the compound in the mentioned concentration. The mice were sacrificed at 24 hours post infection and the bladders were harvested, homogenized and resuspended in PBS. The serial dilutions were spot on LB medium agar plates. The bacterial load was determined by counting the CFU recovered from the bladder. The animal experiments were approved by the Ethical Committer for Animal Experiments of Vrije Universiteit Brussel and complied with all relevant national legislation and institutional policies. The Mann-Whitney test was applied for the comparison of the data obtained from the untreated group and inhibition group in GraphPad Prism version 5.1 and two tailed P value were shown (GraphPad software).
A limited number of papers described the in vivo efficiency of anti-adhesive mannosides to treat UTIs.

The target of assay [6] is T1, monovalent lectin domain of FimH (Escherichia coli, UniProt P08191).
T1 construct: with the monovalent lectin domain of FimH were measured using isothermal calorimetry (ITC)
T1 sequence (P08191 22-179): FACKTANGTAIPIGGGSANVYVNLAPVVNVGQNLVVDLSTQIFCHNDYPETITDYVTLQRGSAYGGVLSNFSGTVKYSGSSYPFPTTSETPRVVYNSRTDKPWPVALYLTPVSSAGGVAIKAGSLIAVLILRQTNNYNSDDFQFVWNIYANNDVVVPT
The assay is classed as binding. The note with it: for Kd / Molar ratio n meas / ΔG° / ΔH° / ΔS°: direct titration; for Kd: read-out: Kd.

The mark [7] stands for this setting: excluding spiky heat signals (2).

The structures appear in SMILES notation. Converted amounts (≈) assume the structure as drawn. Read-outs that look alike come from different tables or passages of the source.

What is called Kd is the concentration at which binding is half-saturated.

On to `CCCCCCCO[C@H]1O[C@H](CO)[C@@H](O)[C@H](O)[C@@H]1O` [heptyl-mannoside, Heptyl α-D-mannoside, reference compound], for which the “Bacterial adhesion in colonic loops compared with no inhibitor” value in assay [1] is listed as “did not decrease significantly”.
For `OC[C@H]1O[C@H](OCCCCCCCOCc2cn(C[C@H]3O[C@@H]4O[C@H]5[C@H](O)[C@@H](O)[C@@H](O[C@H]6[C@H](O)[C@@H](O)[C@@H](O[C@H]7[C@H](O)[C@@H](O)[C@@H](O[C@H]8[C@H](O)[C@@H](O)[C@@H](O[C@H]9[C@H](O)[C@@H](O)[C@@H](O[C@H]%10[C@H](O)[C@@H](O)[C@@H](O[C@H]3[C@H](O)[C@H]4O)O[C@@H]%10CO)O[C@@H]9CO)O[C@@H]8CO)O[C@@H]7CO)O[C@@H]6CO)O[C@@H]5CO)nn2)[C@@H](O)[C@@H](O)[C@@H]1O` [Compound 1], in assay [2] (post-incubation, 500 μM), the “Bacteria adherent to intestinal epithelial cells eliminated” value is at most 40%. In assay [2] (pre-incubation assay), the “Concentration leading to decreased adhesion levels of at least 50%” value stood at 500 µM. For the same compound, the “Concentration reaching around 75% of binding inhibition (25% line)” value in assay [3] is 500 µM. Moreover, the MIC in assay [4] (UTI89 1.2 10^9 CFU/ml) was over 200 µM; in assay [4] (UTI89 1.4 10^8 CFU/ml), 100 µM (≈ 149 µg/mL); in assay [4] (UTI89 7 10^7 CFU/ml) it was 63 µM (≈ 94 µg/mL). For the same compound, in the assay on bladder cell line 5637, the “MIC, anti-adhesive potency on bladder cell line 5637” value was over 400000 nM. Moreover, in assay [5] (0.1 mM), the “Inhibition efficiency at decreased concentration” value is listed as “important drop in the inhibition efficiency”. For the same compound, the “Reduction of the level of infection” value in assay [5] (instillation of 1 mM with UTI89) is given as 10 fold. Besides, the “Affinity of FimH for the ligand (in words)” value in assay [6] (ITC) was “micromolar range”. Also, the results for the Kd in assay [6] (data processed to exclude spiky heat signals (2)) and in assay [6] (data processed to include the whole binding event (1)) were 625 nM and 1640 nM, respectively. The “Molar ratio n meas” value in assay [6] (setting [7]) was 0.36; in assay [6] (whole binding event (1)), 0.35. For the same compound, the “ΔG°” value in assay [6] (setting [7]) was -8.4 kcal/mol; in assay [6] (whole binding event (1)), -7.8 kcal/mol. The figures for the “ΔH°” value in assay [6] (setting [7]) and in assay [6] (whole binding event (1)) were -5.6 kcal/mol and -7.2 kcal/mol, respectively. Moreover, the entries for the “ΔS°” value in assay [6] (setting [7]) and in assay [6] (whole binding event (1)) were 9.7 cal/mol/deg and 2.2 cal/mol/deg, respectively.

For the origin of these results see patent publication US10273313B2, “Multimeric mannosides, a process for preparing the same and their uses as a drug” (CENTRE NATIONAL DE LA RECHERCHE SCIENTIFIQUE, priority 2012, dated 2019).
